This assay has as its target T1, E. coli DdlB enzyme (D-alanine:D-alanine ligase) (Escherichia coli, UniProt P07862).
T1 construct: made in house; host or cells: E. coli
Description: biochemical. As to conditions: for remaining activity at 2500 µM: tested concentration 2.5 mM; for remaining activity at 2400 µM: tested concentration 2.4 mM; for remaining activity at 500 µM: at 0.5 mM; for remaining activity at 1800 µM: tested concentration 1.8 mM; for remaining activity at 2100 µM: tested concentration 2.1 mM; for remaining activity at 1000 µM: at 1 mM; for remaining activity at 2600 µM: tested concentration 2.6 mM; for remaining activity at 2300 µM: tested concentration 2.3 mM; for remaining activity at 2000 µM: tested concentration 2.0 mM; for remaining activity at 1900 µM: tested concentration 1.9 mM; for remaining activity at 2200 µM: tested concentration 2.2 mM.

Where [1] appears, read: residual activity of DdlB, fragment library screening, read-out: DdlB RA.
Where [2] appears, read: read-out: DdlB inhibition, RA (Residual Activity).
Where [3] appears, read: fragment library screening, read-out: DdlB RA.
[4] abbreviates: residual activity, read-out: DdlB RA.

Like-named read-outs stand apart in the source and are kept apart here.

Regarding `NC1=NC(=O)CO1` [Compound 1318-0067], the remaining activity at 5000 µM (residual activity of DdlB, fragment library screening, tested concentration 5.0 mM, read-out: DdlB RA) is 102%.
On to `CCOC(=O)Cc1ccccn1` [FLD164], for which the remaining activity at 2500 µM under setting [1] was found to be 97%.
Take `COC(=O)c1ccc(S(=O)(=O)O)o1` [Compound 4055-0046]: the remaining activity at 2400 µM (read-out: DdlB RA) turned out to be 102%.
Regarding `O=C(O)c1cnn2c(-c3ccc4c(c3)OCO4)ccnc12` [Compound 14, 7-(Benzo[d][1,3]dioxol-5-yl)pyrazolo[1,5-a]pyrimidine-3-carboxylic acid], under setting [2], the remaining activity at 500 µM was determined as 100%.
`C=CCn1c(N2CCC(C(=O)O)CC2)nc2ccccc21` [Compound D264-0028]: the remaining activity at 1800 µM under setting [3] was 86%.
Take `Cc1ncoc1C(=O)N1CCCC(n2c(C)cnc2C)C1` (centres unmarked) [Compound S692-1464]: the remaining activity at 2100 µM under setting [4] is 96%.
As to `O=C(O)c1cnn2c(-c3cccs3)ccnc12` [Compound 15, 7-(Thiophen-2-yl)pyrazolo[1,5-a]pyrimidine-3-carboxylic acid], under setting [2], the remaining activity at 1000 µM is 96%.
Regarding `CC1=NC(C)(C)CO1` [FLD188], the remaining activity at 2500 µM under setting [1] came out at 91%.
Regarding `Nc1ccc2c(c1)[C@@H](O)C[C@@H](C(F)(F)F)O2` [Compound 8018-8746], under “read-out: DdlB RA”, the remaining activity at 2600 µM was determined as 98%.
Regarding `Nc1csc2nccnc12` [FLD078], under setting [1], the remaining activity at 2500 µM amounted to 100%.
As to `CC(=O)Nc1ccccc1C(=O)O` [FLD129], the remaining activity at 2500 µM under setting [1] stood at 98%.
For `OB(O)c1ccc2[nH]ncc2c1` [Compound H024-0113], the remaining activity at 3100 µM (tested concentration 3.1 mM, read-out: DdlB RA) worked out at 93%.
`NC(=S)Nc1ccc(F)cc1` [FLD107]: under setting [1], the remaining activity at 2500 µM came out at 95%.
In the case of `O=c1c(O)c(NCCc2ccccc2)c1=O` [Compound G317-0516], where the note is “read-out: DdlB RA”, the remaining activity at 2300 µM amounted to 92%.
As for `Cc1ccc(Cl)cc1S(=O)(=O)N1CCOCC1` [Compound 8010-0539], under setting [4], the remaining activity at 2000 µM amounted to 98%.
As for `CCC[C@@H]1Cc2nc(O)c(C(=O)O)cc2CO1` [Compound 8330-0016], for the setting “read-out: DdlB RA”, the remaining activity at 2100 µM stood at 75%.
With `CCNC(=O)N1CCC(c2noc(-c3ccccc3)n2)C1` (centres unmarked) [Compound S069-0392], under setting [4], the remaining activity at 1900 µM was determined as 94%.
With `Cc1cccc(C)c1NC(=O)C[C@H](NCCO)C(=O)O` [Compound 4553-3784], the remaining activity at 1800 µM under setting [3] is 102%.
With `Nc1ccc(Cl)cc1` [FLD080], the remaining activity at 2500 µM under setting [1] was 100%.
In the case of `Cc1ccnc(N)c1` [FLD087], under setting [1], the remaining activity at 2500 µM worked out at 100%.
`CCOC(=O)c1ccccc1S(N)(=O)=O` [Compound 0147-0017]: for the setting “read-out: DdlB RA”, the remaining activity at 2200 µM was found to be 99%.
On to `c1cnc2c(c1)ccc1cccnc12` [FLD040], for which, under setting [1], the remaining activity at 2500 µM was found to be 74%.
On to `Cc1ccc(CNC(=O)C2Cn3cccc3C(=O)N2C)o1` (centres unmarked) [Compound S531-0187], for which the remaining activity at 1700 µM (residual activity, tested concentration 1.7 mM, read-out: DdlB RA) was determined as 92%.
`O=[N+]([O-])c1cc(CN2CCCC2)c2cccnc2c1O` [Compound 8010-2705]: the remaining activity at 1800 µM under setting [4] was 57%.
Consider `O=c1c(O)c(N2CCCCCC2)c1=O` [Compound G317-0465], for which the remaining activity at 2600 µM (read-out: DdlB RA) amounted to 92%.
With `O=C(O)c1ccccc1NCc1ccccc1Cl` [Compound K783-0963], the remaining activity at 1900 µM under setting [4] was 95%.
For `COc1cccc2c(O)c(C(=O)O)cnc12` [Compound 8019-9999], under setting [4], the remaining activity at 2300 µM turned out to be 78%.
In the case of `O=C(O)c1cnn2c(-c3ccc(Cl)cc3)ccnc12` [Compound 12, 7–(4-Chlorophenyl)pyrazolo[1,5-a]pyrimidine-3-carboxylic acid], the remaining activity at 1000 µM under setting [2] was found to be 90%. The remaining activity at 5000 µM (at 5 mM, read-out: DdlB inhibition, RA (Residual Activity)) came to 0%.
In the case of `O=c1c(O)c(N2CCN(c3ccccc3)CC2)c1=O` [Compound G317-0478], for the setting “read-out: DdlB RA”, the remaining activity at 1900 µM turned out to be 96%.
On to `Cc1cc2n(n1)CCC(=O)N2CCCC(=O)O` [FF01-0590], for which the remaining activity at 2300 µM (read-out: DdlB RA) is 92%.
For `Cc1ccn(C(C)C(=O)O)n1` (centres unmarked) [Compound Y503-2318], the remaining activity at 3200 µM (tested concentration 3.2 mM, read-out: DdlB RA) turned out to be 95%.
On to `CCC([N+](=O)[O-])C1(O)C(=O)Nc2ccccc21` (centres unmarked) [Compound 3817-0017], for which the remaining activity at 2100 µM under setting [4] is 95%.
`C1CNCC(CCc2noc(C3CCOCC3)n2)C1` (centres unmarked) [SA66-1056]: under setting [4], the remaining activity at 1800 µM turned out to be 94%.
For the compound `Cc1cc(C)nc(C)c1` [FLD167], under setting [1], the remaining activity at 2500 µM was found to be 95%.
Consider `Cn1c(C(=O)O)cc2ccccc21` [FLD198], for which the remaining activity at 2500 µM under setting [1] is 79%.
Take `CC(=O)NCC1CNCC12CCCCC2` (centres unmarked) [Compound S855-0002]: the remaining activity at 2200 µM (read-out: DdlB RA) is 85%.
As for `CC(=O)N1CCCC(c2nn(C)c(=O)n2C2CCCC2)C1` (centres unmarked) [Compound P940-4223], the remaining activity at 2100 µM under setting [4] turned out to be 96%.
Consider `CC(=O)NC1CCC(=O)CC1` [FLD101], for which the remaining activity at 2500 µM under setting [1] worked out at 98%.
`Cc1nc2ccccc2nc1O` [FLD171]: under setting [1], the remaining activity at 2500 µM was found to be 95%.
As to `CN(CC1CCOC1)C(=O)NC1CCCCC1` (centres unmarked) [Compound S213-1594], where the note is “read-out: DdlB RA”, the remaining activity at 2500 µM amounted to 91%.
Turning to `Cc1cc(C(=O)O)n(C)n1` [FLD094], the remaining activity at 2500 µM under setting [1] turned out to be 96%.
`O=c1c(N2CCCC2)c(N2CCCC2)c1=O` [Compound K906-4052]: the remaining activity at 2300 µM (read-out: DdlB RA) stood at 98%.
As to `N#CCC(=O)N(c1ccccc1)c1ccccc1` [Compound Y204-3664], the remaining activity at 2500 µM (read-out: DdlB RA) came to 89%.
As for `O=c1c(-c2ccccc2)c(N2CCOCC2)c1=O` [Compound E470-0468], for the setting “read-out: DdlB RA”, the remaining activity at 2100 µM was 91%.
Turning to `Cc1c(N)c(=O)n(-c2ccccc2)n1C` [Compound 1254-0226], the remaining activity at 2500 µM (read-out: DdlB RA) worked out at 95%.
For `Cc1cc(C)nc(NC#N)n1` [FLD119], the remaining activity at 2500 µM under setting [1] amounted to 100%.
As for `COc1cc(OC)c2cc(C(=O)O)[nH]c2c1` [Compound 8017-9359], the remaining activity at 2300 µM under setting [4] was determined as 104%.
Turning to `Cc1nc(CCOC2CCCNC2)no1` (centres unmarked) [SC04-0106], the remaining activity at 2400 µM (read-out: DdlB RA) is 95%.
As to `COCC(C)NC(=O)c1cc(C)no1` (centres unmarked) [Compound C625-0074], the remaining activity at 2800 µM (tested concentration 2.8 mM, read-out: DdlB RA) was 96%.
On to `CCNC(=O)N1CCC(F)(C(=O)N2CCCC2)CC1` [Compound T502-1430], for which the remaining activity at 2200 µM under setting [4] was found to be 89%.
`Cc1ccc(-c2noc(C(=O)O)n2)cc1` [Compound Y501-1890]: where the note is “read-out: DdlB RA”, the remaining activity at 2500 µM was 77%.
Turning to `O=S(=O)(c1ncn[nH]1)N1CCOCC1` [Compound 8013-0403], the remaining activity at 2300 µM under setting [4] amounted to 95%.
For the compound `Cn1nccc1-c1cccc(B(O)O)c1` [Compound 8020-6599], for the setting “read-out: DdlB RA”, the remaining activity at 2500 µM stood at 93%.
On to `O=C(O)c1ccccc1Br` [FLD060], for which the remaining activity at 2500 µM under setting [1] was 100%.
In the case of `O=C(O)c1cnn2c(-c3ccsc3)ccnc12` [Compound 16, 7-(Thiophen-3-yl)pyrazolo[1,5-a]pyrimidine-3-carboxylic acid], the remaining activity at 500 µM under setting [2] amounted to 89%.
With `CCS(=O)(=O)N1CCC(F)(C(=O)N2CCCC2)CC1` [Compound T502-1464], the remaining activity at 2100 µM under setting [4] was 83%.
Take `Cc1cc(N)[nH]n1` [FLD153]: the remaining activity at 2500 µM under setting [1] was found to be 98%.
Regarding `CCOc1ccc2c(n1)CCN(C(=O)C1CC1)C2` [Compound S422-0032], the remaining activity at 2000 µM (read-out: DdlB RA) amounted to 97%.
As for `N#CC1CC(c2cccc(Cl)c2)=NO1` (centres unmarked) [Compound 8020-2797], the remaining activity at 2900 µM (tested concentration 2.9 mM, read-out: DdlB RA) was 107%.
In the case of `N#Cc1ccc(N2CCCNCC2)nc1` [FLD124], the remaining activity at 2500 µM under setting [1] came to 62%.
As for `N#Cc1ccccc1S(N)(=O)=O` [Compound 8016-9723], the remaining activity at 2700 µM (tested concentration 2.7 mM, read-out: DdlB RA) was determined as 88%.

These data come from article PMC9718554, “Discovery of a fragment hit compound targeting D-Ala:D-Ala ligase of bacterial peptidoglycan biosynthesis” (Journal of Enzyme Inhibition and Medicinal Chemistry, 2022).
